The source made the active and inactive calls.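 The calls were made as follows: active = compounds giving half or more protection of infected cells from virus-caused growth loss, again on retest; inactive = the rest.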
Test system: CEM cells HIV-1 protection, formazan growth assay
Assay: NCI AIDS Antiviral Assay
Details: for IC50: measured here: growth of uninfected CEM cells
How it was run: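 Human CEM cells, uninfected and HIV-1-infected, received five drug concentrations, and growth was read by soluble formazan assay. Compounds giving at least 50% protection were retested; reproducible 100% protection defined confirmed active.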

Compound	EC50	IC50	outcome
C[N+]1(C)CC2C3C=CC(C3)C2C1 (stereo not drawn)	> 309 µM	> 309 µM	
O=c1[nH]c2cc3[nH]c4ncccc4c(=O)c3cc2[nH]1	148 µM	> 200 µM	
CC(=O)NC(CCCCNC(=O)OCc1ccccc1)C(=O)NCc1ccccc1 (stereo not drawn)	> 87.1 µM	> 87.1 µM	
Cn1ccnc1.Cn1ccnc1.[O-][Cl+3]([O-])([O-])[O-].[Pt+2].c1ccc(-c2ccccn2)nc1	> 200 µM	> 200 µM	
CC1(c2ccc(Cl)cc2)OCC(CCl)O1 (stereo not drawn)	> 200 µM	> 200 µM	
Cn1c2c(c3ccccc31)CCN1C(=O)CCC21 (stereo not drawn)	> 537 µM	288 µM	
C[N+](C)(C)CCCCCCCCCC[N+](C)(C)C	> 603 µM	> 603 µM	
O=C(Nc1ccc(C(=O)O)c(O)c1)c1ccc(C(=O)Nc2ccc(C(=O)O)c(O)c2)cc1	> 200 µM	89.1 µM	
CC[N+]1(C)CSC(=S)N(C)C1 (stereo not drawn)	> 200 µM	75.9 µM	
CCC1=C(OC)c2ncccc2C(=O)C1=O			inactive
O=C(/C=C/c1ccccc1)CCc1c(O)c2ccccc2oc1=O	> 112 µM	97.7 µM	
COc1cccc(/C=C/c2nc3ccccc3nc2/C=C/c2cccc(OC)c2OC)c1OC	> 200 µM	55 µM	
O=c1c(I)c[nH]cc1I	> 200 µM	> 200 µM	
N#Cc1c(SCc2ccccc2)nc(-c2ccccc2)[nH]c1=S	> 151 µM	19.5 µM	
C=CCN1C(=O)CC(=O)N(NC2=NNC3(C(=O)N2)c2ccccc2-c2ccccc23)C1=S	> 200 µM	79.4 µM	
COc1ccc(-c2coc3c(OC)c(OC)c(OC)c(OC)c3c2=O)cc1	> 200 µM	44.7 µM	
CC1(C)OC[C@@H](C[C@H](O)COCc2ccccc2)O1	> 200 µM	> 200 µM	
N#Cc1cccc(-n2[nH]c(=O)ccc2=O)c1	> 200 µM	> 200 µM	
COCCOC(=O)C1=C(O)c2ccccc2S(=O)(=O)N1C	> 794 µM	562 µM	

Compound	EC50	IC50	outcome
C[N+]12C=CC=C1C(N1CCCC1)c1scc(-c3ccc(F)cc3)c12 (stereo not drawn)	> 200 µM	24.5 µM	
Nc1ccc(C(=O)Nc2ccccc2N)cc1	> 1100 µM	3.8 µM	
CC(C(=O)O)n1c(=O)ssc1=O (stereo not drawn)	63.1 µM	123 µM	
NCCCNCCSP(=O)(O)O	> 1150 µM	257 µM	
O=C(CCc1nc(=S)[nH][nH]1)Nc1cccc(C(F)(F)F)c1	> 22.9 µM	> 22.9 µM	
CCOc1ccccc1NC(=O)C(=O)CC(=O)c1c(C)n([O-])c2ccccc2[n+]1=O	> 110 µM	> 110 µM	
Clc1ccc(COC(Cn2ccnc2)c2ccc(Cl)cc2Cl)c(Cl)c1 (stereo not drawn)	> 200 µM	14.1 µM	
CCCCCC(C/C=N/N(C)C)C(O)(C(F)(F)F)C(F)(F)F (stereo not drawn)	> 200 µM	14.5 µM	
Nc1nc(Cl)cc(NCC2(CO)CCC2)n1	> 200 µM	191 µM	
Nc1nc2c(ncn2C2OC(CO)CC2F)c(=O)[nH]1 (stereo not drawn)			active
O=S(=O)([O-])[O-].O=c1[nH]cnc2nc[n-]c12.[OH3+].[OH3+].[Zn+2]	> 21.4 µM	> 21.4 µM	
O=S(=O)(O)c1ccc(Sc2ccc(S(=O)(=O)O)cc2)cc1	> 631 µM	> 631 µM	
Cn1cnc([N+](=O)[O-])c1Sc1ccccc1C(=O)O	> 339 µM	> 339 µM	
Cc1cc2c(c(C(=O)NCCC(=O)O)c1)Oc1c(cc(C)cc1C(=O)NCCC(=O)O)S2	> 200 µM	> 200 µM	
O=C(NC(=Nc1ccccc1)SCSC(=Nc1ccccc1)NC(=O)c1ccccc1F)c1ccccc1F	> 200 µM	28.8 µM	
CN1CCN(Cc2nc3cccc4c3c([n+]2[O-])-c2ccccc2-4)CC1			inactive
Cc1ncc2c(n1)CCC1=C2OS(=O)(=O)CC1N(C)C (stereo not drawn)	> 200 µM	38.9 µM	
O=C(O)C1(C(=O)O)CC2C3C=CC(C3)C2C1 (stereo not drawn)	> 398 µM	> 398 µM	
COc1ccc(SSc2ccc(OC)cc2)cc1	> 200 µM	> 200 µM	
